Values quoted from earlier work as cited in patent publication US6245354A, “Drug delivery system using galactoxyloglucan” (Dainippon Pharmaceutical Co., Ltd., priority 1996, dated 2001).

With `CO[C@@]12[C@H](COC(N)=O)C3=C(C(=O)C(C)=C(N)C3=O)N1C[C@@H]1N[C@@H]12` [mitomycin C] as the compound, how does the “transfer to systemic circulation” value (administered into the abdominal cavity) read?
Its value is “rapidly transferred to a systemic circulation”.

What about the therapeutic effects (peritoneal tumors, carcinomatous peritonitis, into the abdominal cavity) of the same compound?
Its therapeutic effects is “can not exhibit sufficient therapeutic effects”.
